The supplement of paper PMC10307832

Key:
Assay in all cases: relative viability (nuclei count vs DMSO), 5 days (fraction); higher = more cells survive
IU1-47 + Trametinib = compound: CC1=CC(=C(N1C2=CC=C(C=C2)Cl)C)C(=O)CN3CCCCC3 [IU1-47] + CC(=O)Nc1cccc(-n2c(=O)n(C3CC3)c(=O)c3c(Nc4ccc(I)cc4F)n(C)c(=O)c(C)c32)c1 [Trametinib] (partner 0.02 µM)
Outline: (§1)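 Each reported value is a median over duplicate plates. It expresses relative viability: treated-well nuclei count divided by vehicle-well nuclei count. Lung cancer cell lines in 1536-well plates were dosed by pin tool a day after seeding, alone with one drug or with a fixed anchor-drug dose plus five library-drug doses (not always all listed) in √10 steps, and nuclei were counted after 5 days.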

FG-4592 = compound: Cc1nc(C(=O)NCC(=O)O)c(O)c2ccc(Oc3ccccc3)cc12 [FG-4592]
Outline: (§2)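 Viability is treated-well nuclei as a fraction of vehicle-well nuclei, reported as the median across plates. Before counting, lung cancer cell lines were kept overnight at 37 °C in 1536-well plates, pinned with five √10-spaced library-drug doses on vehicle-anchored plates, and left 5 days without medium change, then fixed, permeabilised and Hoechst-stained in one step, imaged at 4× and counted by MetaXpress. A plate passed only if control CV was below 25% and at least one doubling occurred.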

IU1-47 = compound: CC1=CC(=C(N1C2=CC=C(C=C2)Cl)C)C(=O)CN3CCCCC3 [IU1-47]
Outline: as §2

FG-4592 + Navitoclax = compound: Cc1nc(C(=O)NCC(=O)O)c(O)c2ccc(Oc3ccccc3)cc12 [FG-4592] + CC1(C)CCC(c2ccc(Cl)cc2)=C(CN2CCN(c3ccc(C(=O)NS(=O)(=O)c4ccc(N[C@H](CCN5CCOCC5)CSc5ccccc5)c(S(=O)(=O)C(F)(F)F)c4)cc3)CC2)C1 [Navitoclax] (partner 0.5 µM)
Outline: as §1

| Cell Line | relative viability (IU1-47 + Trametinib; first compound 0.08 µM) | relative viability (IU1-47 + Trametinib; first compound 0.253 µM) | relative viability (IU1-47 + Trametinib; first compound 0.8 µM) | relative viability (IU1-47 + Trametinib; first compound 2.53 µM) | relative viability (IU1-47 + Trametinib; first compound 8 µM) | relative viability (FG-4592; 0.08 µM) | relative viability (FG-4592; 0.253 µM) | relative viability (FG-4592; 0.8 µM) | relative viability (FG-4592; 2.53 µM) | relative viability (FG-4592; 8 µM) | relative viability (IU1-47; 0.08 µM) | relative viability (IU1-47; 0.253 µM) | relative viability (IU1-47; 0.8 µM) | relative viability (IU1-47; 2.53 µM) | relative viability (IU1-47; 8 µM) | relative viability (FG-4592 + Navitoclax; first compound 0.08 µM) | relative viability (FG-4592 + Navitoclax; first compound 0.253 µM) | relative viability (FG-4592 + Navitoclax; first compound 0.8 µM) | relative viability (FG-4592 + Navitoclax; first compound 2.53 µM) | relative viability (FG-4592 + Navitoclax; first compound 8 µM) |
| --- | --- | --- | --- | --- | --- | --- | --- | --- | --- | --- | --- | --- | --- | --- | --- | --- | --- | --- | --- | --- |
| NCI-H2342 | 0.85 | 0.882 | 1.05 | 0.973 | 0.89 | 0.985 | 0.97 | 0.839 | 0.812 | 0.82 | 1.03 | 1.03 | 1.28 | 1.15 | 0.985 | – | – | – | – | – |
| SK-MES-1 | 0.585 | 0.606 | 0.567 | 0.629 | 0.584 | 0.991 | 0.939 | 0.969 | 0.981 | 0.983 | 1.12 | 1.22 | 1.02 | 1.1 | 1.06 | 1.15 | 1.18 | 1.32 | 1.25 | 1.39 |
| HCC-366 | 0.402 | 0.431 | 0.394 | 0.423 | 0.323 | 0.798 | 1 | 1.02 | 0.964 | 1.05 | 1.03 | 0.969 | 1.04 | 1.04 | 0.879 | 1.07 | 0.903 | 1.12 | 1.1 | 1.04 |
| 201T | 0.719 | 0.747 | 0.715 | 0.7 | 0.73 | 0.941 | 0.955 | 0.974 | 1 | 0.982 | 0.961 | 0.99 | 1.07 | 0.53 | 0.941 | 1.14 | 1.19 | 1.21 | 1.18 | 1.22 |
| HCC-827 | 0.565 | 0.481 | 0.596 | 0.54 | 0.517 | 1.03 | 0.988 | 1.02 | 1.02 | 1.03 | 1.09 | 1.05 | 1.05 | 1.08 | 1.09 | 1.03 | 1.01 | 0.992 | 1.02 | 1.09 |
| NCI-H647 | 0.459 | 0.432 | 0.489 | 0.405 | 0.443 | 0.916 | 0.94 | 0.837 | 0.933 | 0.727 | 1.07 | 1.05 | 0.843 | 0.985 | 0.923 | 1.16 | 1.04 | 1.04 | 0.961 | 1.12 |
| NCI-H2023 | 0.563 | 0.636 | 0.607 | 0.608 | 0.557 | 0.919 | 0.866 | 0.857 | 0.922 | 0.88 | 0.951 | 0.949 | 1.06 | 0.851 | 1.27 | 0.991 | 1 | 1.12 | 0.94 | 0.829 |
| NCI-H520 | 0.661 | 0.671 | 0.821 | 0.456 | 0.633 | 0.873 | 0.897 | 0.827 | 0.943 | 0.761 | 0.989 | 0.973 | 0.981 | 0.879 | 0.849 | 1.03 | 1.05 | 1.05 | 1.07 | 0.879 |
| RERF-LC-KJ | 0.845 | 0.883 | 0.998 | 1.1 | 0.799 | 1.03 | 0.922 | 1 | 1.02 | 0.906 | 1.06 | 1.04 | 1.14 | 0.902 | 0.946 | 0.87 | 0.691 | 1.06 | 1.07 | 0.622 |
| A-427 | 0.833 | 0.879 | 0.773 | 0.749 | 0.636 | 0.923 | 0.916 | 0.797 | 0.866 | 0.897 | 1.03 | 1.04 | 1.12 | 0.549 | 0.956 | 0.829 | 0.739 | 0.802 | 1.08 | 0.914 |
| NCI-H441 | 0.37 | 0.338 | 0.395 | 0.595 | 0.439 | 1.05 | 0.928 | 0.98 | 0.756 | 0.787 | 1.24 | 1.16 | 1.07 | 1.01 | 1.07 | 0.606 | 1.01 | 0.573 | 0.964 | 0.588 |
| NCI-H1703 | – | – | – | – | – | 0.901 | 0.823 | 0.935 | 0.904 | 0.772 | 1.03 | 0.75 | 0.894 | 0.921 | 0.922 | 1.01 | 0.862 | 1.16 | 1.13 | 1.02 |
| NCI-H1792 | 0.569 | 0.392 | 0.437 | 0.402 | 0.422 | 0.763 | 0.725 | 0.693 | 0.861 | 0.868 | 0.847 | 0.796 | 0.889 | 0.862 | 0.486 | 0.619 | 0.554 | 0.575 | 0.611 | 0.644 |
| Calu-6 | – | – | – | – | – | 0.945 | 0.995 | 1.03 | 0.975 | 1.02 | 1 | 1.06 | 1.07 | 1.04 | 1.02 | 0.795 | 0.734 | 0.974 | 0.914 | 0.87 |
